Nine compounds from article PMC2857364, “Inhibition of Nitric Oxide (NO) Production in Lipopolysaccharide (LPS)-Activated Murine Macrophage RAW 264.7 Cells by the Norsesterterpene Peroxide, Epimuqubilin A” (Marine Drugs, 2010) can be followed below.

Data set [1] has as its system GSK-3β. The class given is cell-based, yeast. The conditions noted are these: disk alone 7 mm. How it is done:
Disruption of four yeast GSK-3 homologs (MCK1, MDS1, MRK1 and YOL128C) in gsk-3 null mutant confers a temperature-sensitive phenotype (growth defect at 37 °C), that can be suppressed by the expression of cloned mammalian GSK-3β [29]. Inhibition of GSK-3β should therefore mimic the phenotype of the gsk-3 null mutant, indicated by growth inhibition of transformant of gsk-3 null with pKT10-GSK-3β only at 37 °C. A genetically modified yeast strain, H10075 with genotype {MAT α his3 leu2 ura3 trp1 ade2 mck1::TRP1 mds1::HIS3 mrk1 yol128c::LEU2 [pKT10-GSK-3β], was grown in 5 mL of liquid media of SC minus uracil, shaking, at 37 °C for 2 days. Four hundred-μL of the yeast culture was added to 100 mL of SC minus uracil agar [0.67% yeast nitrogen base without amino acids and ammonium sulfate, 0.5% ammonium sulfate, 2% D-(+)-glucose anhydrate, 1 mL each of 0.03 mg/mL of adenine (hemisulfate salt), 0.03 mg/mL of L-tryptophan, 0.03 mg/mL of L-leucine, 0.03 mg/mL of L-histidine and 1.5% bacteriological agar, pH 5.6]. […] The Petri dishes were incubated at both 25 °C and 37 °C for 72 hours. Three phenotypes are observed on yeast plates. A clear zone of inhibition (ZOI) at 37 °C and no ZOI at 25 °C indicate that the agent tested inhibits the GSK-3β pathway. The clear zones of inhibition at both 37 and 25 °C of equal width indicate that the agents are cytotoxic. Plates that have a negative phenotype are plates that have no observable ZOI. […] The assays were performed in duplicate.

Data set [2] has as its system NO production in LPS-activated murine macrophage RAW 264.7 cells. Description: Assay for NO inhibitory effect using LPS-activated RAW 264.7 cells (Griess reagent). The following applies: for IC50: LPS (1 μg/mL, 20 h)-activated RAW 264.7 cells. The class given is cell-based. How it is done:
(§1) The inhibitory effects of samples on NO production were evaluated in LPS-activated murine macrophage RAW 264.7 cells, using a method modified from that previously reported. Briefly, RAW 264.7 cells were cultured in Dulbecco’s modified Eagle’s medium (DMEM) supplemented with penicillin G sodium (100 units/mL), streptomycin sulfate (100 μg/mL), amphotericin B (0.25 μg/mL), and 10% fetal bovine serum (FBS). The cells were seeded in 96-well culture plates with 1 × 10^5 cells/well and incubated for 24 h at 37°C in a humidified atmosphere containing 5% CO2. The cells were treated with samples dissolved in phenol red-free DMEM for 30 min followed by 1 μg/mL of LPS treatment for 20 h. The amount of NO in the cultured medium was measured by the Griess reagent. The standard curve was created by using known concentrations of sodium nitrite, and the absorbance was measured at 540 nm. To evaluate the cytotoxic effect of samples in RAW 264.7 cells in the assay condition, SRB assay was performed. Briefly, after the fixation with 10% trichloroacetic acid (TCA), cells were stained with 0.4% SRB solution in 1% acetic acid followed by dissolving bound SRB in 10 mM Tris-buffer. The optical density was determined at 515 nm.
A general note: The Griess reaction detects nitrite, a stable product of nitric oxide.

Data set [3] can be described thus: SRB assay for cytotoxic effect in RAW 264.7 cells under the NO assay condition. The following applies: mouse, RAW 264.7 macrophage cells (LPS-activated); for activity at 20 h, 20 μg/mL: 20 μg/mL after 20 h incubation in RAW 264.7 cells, read-out: Cytotoxic activity % Survival; for IC50 at 20 h: RAW 264.7 cells, SRB. The class given is cell-based, murine. How it is done: (§2) In addition, to determine whether the inhibitory effects of compounds on NO production were due to specific pharmacological activities, or non-specific cell cytotoxicity leading to false positive results, RAW 264.7 cell viability was determined by using the sulforhodamine B (SRB) protein staining method. Compounds 1 and 6 mediated a modest cytototoxic response, with 36.1 and 43.0% percent survival, respectively, at the highest concentration tested (20 μg/mL; 51.0 μM). Cytotoxic effects diminished with lower concentrations. […] Further experiments will be performed to determine whether epimuqubilin A inhibits nitrite production via suppression of iNOS expression in the levels of protein.
as §1
On the technique in general: The SRB assay estimates cell density from bound dye.

Data set [4] has as its system RAW 264.7 cells. Described as above. It counts as cell-based, murine. The following applies: for Cytotoxic effects: at 12.8 μM, RAW 264.7 cells, SRB. On the procedure: as §2, §1

Each structure is given as a SMILES string. Counter-ions that a name gives are not always drawn. Like-named read-outs stand apart in the source and are kept apart here. A value given as a limit tells only on which side of the number the result lay.

Take `Cn1sc(=O)n(Cc2ccccc2)c1=O` [TDZD-8, 4-Benzyl-2-methyl-1,2,4-thiadiazolidine-3,5-dione, reference compound]: the “Yeast GSK-3β zone of inhibition” value in data set [1] (25 °C, 5 μg/disk) worked out at 8 mm; in data set [1] (25 °C, 10 μg/disk), 9 mm; in data set [1] (25 °C, 20 μg/disk), 10 mm; in data set [1] (25 °C, 40 μg/disk) it was 12 mm; in data set [1] (37 °C, 5 μg/disk) it was 9 mm; in data set [1] (37 °C, 10 μg/disk), 10 mm. For the same compound, the “Yeast GSK-3β zone of inhibition” value in data set [1] (37 °C, 20 μg/disk) is listed as 11 mm; in data set [1] (37 °C, 40 μg/disk), 15 mm.
In the case of `[H]/N=C(/NC)NCCC[C@H](N)C(=O)O` [L-NMMA, L-N^G-Monomethyl Arginine citrate, reference compound], in data set [2] (Mus musculus, RAW264.7, 20 h), the half-inhibitory concentration (IC50) (commonly the concentration needed to halve the response being measured) was determined as 25.5 µM. In addition, in data set [3], the activity at 20 h, 20 μg/mL is more than 100%.
In the case of `C=C1CCCC(C)(C)C1(O)CC/C(C)=C/CC[C@]1(C)CC[C@H]([C@@H](C)C(=O)OC)OO1` (stereo partly drawn) [Compound 4, epimuqubilin B], the “Yeast GSK-3β zone of inhibition” value in data set [1] (25 °C, 20 μg/disk) is on record as “no ZOI”; in data set [1] (37 °C, 20 μg/disk) it was 8 mm; in data set [1] (37 °C, 40 μg/disk), 10–13 mm; in data set [1] (37 °C, 40 μg/disk, listed as Epimuqubilin B (4)) it was 10 mm. Moreover, in data set [2] (Mus musculus, RAW264.7, 20 h), the 50% inhibitory concentration (IC50) turned out to be 25.6 µM. Further, in data set [3], the activity at 20 h, 20 μg/mL is more than 100%.
On to `C=C1CCC[C@H]2[C@](C)(CC[C@]3(C)CC[C@H]([C@@H](C)C(=O)O)OO3)[C@@H](C)CC[C@]12C` [Compound 6, sigmosceptrellin A], for which the “Yeast GSK-3β zone of inhibition” value in data set [1] (25 °C, 20 μg/disk) is “no ZOI”; in data set [1] (37 °C, 5 μg/disk), 8 mm; in data set [1] (37 °C, 10 μg/disk), 10 mm; in data set [1] (37 °C, 20 μg/disk), 8 mm; in data set [1] (37 °C, 20 μg/disk, listed as Sigmosceptrellin A (6)), 11 mm; in data set [1] (37 °C, 40 μg/disk), 10–13 mm. The “Yeast GSK-3β zone of inhibition” value in data set [1] (37 °C, 40 μg/disk, listed as Sigmosceptrellin A (6)) was 13 mm. This compound also returned a concentration for half-maximal inhibition (IC50) in data set [2] (Mus musculus, RAW264.7, 20 h) of 9.9 µM. In data set [4], the Cytotoxic effects entry is “no significant cytotoxic effects”. The activity at 20 h, 20 μg/mL in data set [3] came out at 43%. Besides, the concentration for half-maximal inhibition (IC50) at 20 h in data set [3] amounted to 42.7 µM.
The compound `C=C1CCCC2C1(C)CCC(C)C2(C)CCC1(C)CCC(C(C)C(=O)OC)OO1` (stereo not drawn) [Compound 7, sigmosceptrellin B methyl ester] yielded an IC50 in data set [2] (Mus musculus, RAW264.7, 20 h) of 65.7 µM. Besides, the activity at 20 h, 20 μg/mL in data set [3] is more than 100%.
`CC(=O)CCCC(C)(C)C(=O)CCC(C)=CCCC1(C)CCC(C(C)C(=O)O)OO1` (stereo not drawn) [Compound 2, muqubilone B] yielded a half-maximal inhibitory concentration (IC50) in data set [2] (Mus musculus, RAW264.7, 20 h) of 23.8 µM. For the same compound, the activity at 20 h, 20 μg/mL in data set [3] was 99%.
In the same order, the values of `COC(=O)C(C)C1CCC(C)(CCC=C(C)CCC=C(C)CCC=C(C)C)OO1` (stereo not drawn) [Compound 3] are 46 µM and more than 100%.
As for `CC1=C(CC/C(C)=C/CC[C@@]2(C)CC[C@@H]([C@H](C)C(=O)O)OO2)C(C)(C)CCC1` [Compound 1, epimuqubilin A], the “Yeast GSK-3β zone of inhibition” value in data set [1] (25 °C, 20 μg/disk) is “no ZOI”; in data set [1] (37 °C, 20 μg/disk), 8 mm; in data set [1] (37 °C, 20 μg/disk, listed as Epimuqubilin A (1)) it was 9 mm; in data set [1] (37 °C, 40 μg/disk), 10–13 mm; in data set [1] (37 °C, 40 μg/disk, listed as Epimuqubilin A (1)) it was 10 mm. In data set [2] (Mus musculus, RAW264.7, 20 h), 7.4 µM corresponded to half-maximal inhibition (IC50). In addition, the Cytotoxic effects result in data set [4] was “no significant cytotoxic effects”. For the same compound, the activity at 20 h, 20 μg/mL in data set [3] amounted to 36.1%. The compound also yielded a concentration for half-maximal inhibition (IC50) at 20 h in data set [3] of 37.1 µM.
Regarding `C=C1CCCC2C1(C)CCC(C)C2(C)CCC1(C)CCC(C(C)C(=O)OC)OO1` (stereo not drawn) [Compound 5, sigmosceptrellin A methyl ester], in data set [2] (listed as Sigmosceptrellin A methyl ester (5)), the IC50 is more than 100 µM. In addition, the “NO inhibitory activity (in words)” value in data set [2] (LPS-activated RAW 264.7 cells) was “inactive”. Further, the “Cytotoxic activity % Survival” value in data set [4] (20 μg/mL after 20 h incubation in RAW 264.7 cells, listed as Sigmosceptrellin A methyl ester (5)) stood at 90.6%.
